Reference: paper PMC12628291 (Inorganic Chemistry, 2025)
Like-named read-outs stand apart in the source and are kept apart here.

Tests used:
[1] = UV-vis absorption, emission spectra and luminescence quantum yield; type: physicochemical; conditions: for Φ (luminescence quantum yield): air-equilibrated; for λem: excitation 450 nm
Method: We studied the absorption and emission properties of the complexes in different solvents including MeCN, MeOH, and Tris-HCl aqueous buffer (0.05 M, pH 7.4). Due to solubility limitations, only complexes 1–4 were studied in Tris-HCl aqueous buffer. Indicatively, the comparative UV–vis absorption and emission spectra of complexes 4 and 7 in MeCN at 298 K are presented in Figure e.
The photophysical data are summarized in Tables and , and all measurements were conducted in air-equilibrated solvents.
(§1) ^1H, ^1H–^1H COSY, and ^13C NMR spectra were recorded on a 500 MHz NMR spectrometer (Agilent). Absorption spectra were acquired by using a JASCO V-750 spectrophotometer. For recording the emission spectra, we used an Edinburgh Instruments FS5 spectrofluorometer equipped with a red-sensitive Hamamatsu R13456 photomultiplier tube (PMT) and a 150 W xenon arc lamp as the light source. All spectra were corrected for detector response using the correction files and software (Fluoracle) provided by the manufacturer. The luminescence quantum yields of the complexes were calculated using the optically dilute method with an air-equilibrated aqueous solution of [Ru(bpy)3]-Cl2 (Φem = 0.049, λex = 436 nm) as the standard solution. , Emission lifetime measurements were performed using an Edinburgh Instruments mini-τ lifetime spectrometer with a bandpass filter (±40 nm bandpass) at 650 nm. The excitation source was an Edinburgh Instruments picosecond pulsed LED (EPLED-320) with a peak wavelength of 326.8 nm and a pulse width of 910 ps. The detector was a thermoelectrically cooled, high-speed, red-sensitive photomultiplier tube (Hamamatsu H10720-01). The data were analyzed by using the software provided by the manufacturer (Fluoracle). For emission lifetime calculations, the experiments were performed in triplicate, yielding similar results. The MS spectra were acquired using an LC20AD Shimadzu connected to Shimadzu LCMS-2010EV, with a flow rate of 0.4 mL/min MeOH or MeCN + 0.1% formic acid. LCMS analysis was carried out on an Agilent 1260 Infinity with a Raptor C18 column (50 mm × 2.1 mm, 2.7 μm particle size). A two-minute gradient from 5% to 95% MeCN in water was used, supplemented with 0.1% formic acid.

MDA-MB-453 (ER-) cells = assay: MTS viability assay (dark and 457 nm light) in MDA-MB-453; type: cell-based; conditions: MDA-MB-453, 457 nm for 12 min at 6 h, 24 h incubation
Method: (§2) We determined the cytotoxicity of all the complexes using the well-established MTS assay against two breast cancer cell lines: MCF-7, which is ER+, and MDA-MB-453, which is ER-.
(§3) In this experiment, the cells were irradiated with blue light (457 nm) for 12 min.
(§4) MDA-MB-453 and MCF-7 cells were grown in high-glucose Dulbecco’s Modified Eagle Medium (DMEM) containing 10% fetal bovine serum at 37 °C with 5% CO2 in humidified air.
(§5) For viability experiments, cells were seeded at a density of 20,000 cells per well in Greiner-Bio black μClear plates. After 24 h, the corresponding ruthenium complexes were added at the appropriate concentrations (30 nM to 100 μM for complexes 1-4 and 30 nM to 20 μM for 5–7, < 1% DMSO) and allowed to incubate. For the phototoxicity experiments, the plate was removed at the six-hour time point and irradiated for 12 min using a Lumidox 457 nm 96-LED array set to 8 mA (2 mW/cm^2, a total of 1.2 J/s). After an overall 24 h incubation period, the media were replaced with fresh media containing an MTS/PMS mixture as per the Promega protocol (MTS: 3-(4,5-dimethylthiazol-2-yl)-5-(3-carboxymethoxyphenyl)-2-(4-sulfophenyl)-2H-tetrazolium; PMS: phenazine methosulfate). After an additional 4 h had passed, the absorbance at 490 nm (MTS) and 635 nm (background) was measured. Cell viability was calculated from the dose-response curve of the absorbance (MTS – background).

MCF-7 (ER+) cells [2] = assay: Luminescence microscopy of treated ER+ cells; type: cell-based; conditions: Figure S62, 6 h incubation
Method: 3 Microscopy imaging of cells incubated with complex 3 (20 μΜ) and complex 4 (10 μΜ) for 6 h: brightfield (left), photosensitizer luminescence (middle), and overlaid (right) images. (b) Cellular uptake by ICP-MS of complexes 1, 3, and 4 (20 μM, 6 h) in MCF-7 (ER+) and MDA-MB-453 (ER−) cells.
For imaging experiments, cells were seeded at a density of 20,000 cells per well in Greiner-Bio black μClear plates. After 24 h, the corresponding ruthenium complexes were added at the appropriate concentrations. After 6 h, the cells were washed 3 times with media, and the media were replaced with phenol-red-free media. Compounds were imaged on an Eclipse-Ti2 Widefield system (Nikon), equipped with a Prime 95B sCMOS camera (Teledyne), pE-400 LED light source (CoolLED), a 20× or 40× objective, and emission filters for green (515/30 nm), orange (600/50 nm), red (641/75 nm), and far-red (705/72 nm). The bright-field channel was used to autofocus each well, after which the complexes were excited using a 450 nm laser and the red emission channel collected.

MCF-7 (ER+) cells [3] = assay: MTS viability assay (dark and 457 nm light) in MCF-7; type: cell-based; conditions: for IC50: MCF-7, 457 nm for 12 min at 6 h, 24 h incubation, MTS; for SI = selectivity index, [IC50(ER‑)]light/[IC50(ER+)]light: MDA-MB-453 (ER-) vs MCF-7 (ER+)
Method: as §2, §3, §4, §5

[4] = Emission lifetime (time-resolved luminescence decay); type: physicochemical
Method: Given the changes in the aggregation profiles of the complexes in cell culture medium containing FBS, as observed by DLS analysis, we also examined their emission lifetimes under these conditions (Table and Figure S52F–J). For this analysis, an 80 μM solution of each complex was utilized to achieve an improved signal-to-background ratio. […] However, the emission decay behavior of complexes 2–4 differs markedly from that of the estrogen-free control and from that of [Ru(bpy)3]^2+. In a cell culture medium with 10% FBS, the decay profile of complex 1 can be fitted to a biexponential model, comprising a short-lived component (355 ns, 6.6% contribution), consistent with the monomeric species, and a long-lived component (672 ns, 93.4% contribution) attributable to the aggregated form. […] Consistent with the behavior observed in Tris-HCl buffer, the addition of MeCN to a solution of complex 3 in FBS-containing medium led to aggregate disruption once the MeCN content reached 30%, as evidenced by a decrease in emission lifetime to 436 ns, signaling the dominance of the nonaggregated form (Figure f). Overall, our findings collectively confirm that aggregation correlates with the observed emission enhancement in aqueous solutions and that complexes 1–4 predominantly exist as self-assembled micelle-like aggregates in the cell culture medium used for our cellular studies. Nevertheless, it cannot be unequivocally determined from these experiments whether the complexes preserve their aggregated form in the intracellular environment.
as §1

[5] = DLS particle size distribution in Tris-HCl buffer; type: physicochemical; conditions: 20 μM
Source text: Given the amphiphilic nature of the complexes, with the functionalized phenanthroline ligand serving as a lipophilic tail and the Ru(II) core serving as a hydrophilic headgroup, it was of interest to investigate the potential tendency of the complexes to form micelle-like aggregates in aqueous solutions. […] Our focus was to investigate the aggregation behavior in a purely aqueous environment, without the use of cosolvents such as DMSO. Since complexes 5–7 could not be solubilized under these conditions, they were not included in the DLS analysis.
The particle size distribution of the complexes was determined by dynamic light scattering (DLS) using a Particle Analyzer Litesizer 500 (Anton Paar, Austria) at 25 °C. 20 μM solutions of complexes 1–4 and of [Ru(bpy)3]-Cl2 in Tris-HCl buffer, as well as 20 μM solutions of complexes 1–4 in Gibco DMEM (Dulbecco’s Modified Eagle Medium with high glucose, L-glutamine, pyruvate, 10% FBS, and without phenol red), were analyzed by DLS. The experiments were performed in triplicate, yielding similar results.

[6] = test system: MCF-7 (ER+) and MDA-MB-453 (ER−) cells; assay: Cellular uptake of ruthenium by ICP-MS; type: cell-based; conditions: 20 μM, 6 h, MCF-7 vs MDA-MB-453
Method: Thus, the cellular uptake of complexes 3 and 4 was evaluated and compared to the control complex 1 in ER+ (MCF-7) and ER– (MDA-MB-453) cell lines using inductively coupled plasma mass spectrometry (ICP-MS) (Figure b). […] This trend is consistent with its increased lipophilicity and the brighter red luminescence observed by microscopy for this complex. It is well established that lipophilicity can enhance membrane permeability and cellular internalization.
Cells were seeded at the appropriate density in 6-well plates (1 × 10^6 cells per well for MDA-MB-453 and 400,000 cells per well for MCF-7) and allowed to adhere for 24 h. Ruthenium complexes were added to the wells by direct dilution of a 10 mM DMSO stock solution to yield a final concentration of 20 μM in culture medium. After 6 h of incubation, the medium was removed, and the cells were washed three times with phosphate-buffered saline (PBS) to eliminate extracellular ruthenium. Cells were subsequently detached using trypsin, collected by centrifugation, and counted. […] The monitored isotope was 101Ru. A set of ruthenium calibration standards was used to establish and model the linear relationship between signal and concentration before the samples were injected, signal measured, and averaged across three consecutive signal acquisitions. The amount of metal detected in the cell samples was normalized to ppb per 1,000,000 cells.

[7] = set-up: method as in doi:10.1021/ja00432a028; conditions: H2O; cited from earlier work
[8] = in water; literature value, reference number not given; cited from earlier work
[9] = Tris-HCl buffer (0.05 M, pH 7.4), 298 K
[10] = Tris-HCl buffer (0.05 M, pH 7.4)
[11] = cell culture medium (DMEM, 10% FBS, no phenol red), 80 μM
[12] = cell culture medium with 10% FBS, biexponential fit

SMILES: CCCCc1cn(-c2cc3cccnc3c3ncccc23)nn1.[Cl-].[Cl-].[Ru+2].c1ccc(-c2ccccn2)nc1.c1ccc(-c2ccccn2)nc1 [Complex 1, [Ru(bpy)2(L-1a)]Cl2]
- ε ([1]; MeCN (298 K)): 1.2 × 10^4 M^–1 cm^–1
- λabs ([1]; MeCN (298 K)): 450 nm
- Φ (luminescence quantum yield) ([1]; MeCN (298 K)): 2.1%
- λem ([1]; MeCN (298 K)): 625 nm
- ε [1, 9]: 1.1 × 10^4 M^–1 cm^–1
- λabs [1, 9]: 449 nm
- Φ (luminescence quantum yield) [1, 9]: 5.6%
- λem [1, 9]: 635 nm
- IC50 (MDA-MB-453 (ER-) cells): > 100 µM
- intracellular luminescence, ER+ versus ER– cells (microscopy) (MCF-7 (ER+) cells [2]): no notable difference in luminescence between the two cell lines
- IC50 (MCF-7 (ER+) cells [3]): > 100 µM
- SI = selectivity index, [IC50(ER‑)]light/[IC50(ER+)]light (MCF-7 (ER+) cells [3]): NPD ^b
- τ1 ([4]; MeCN): 165 ns
- τ1 ([4]; MeOH): 225 ns
- τ1 [4, 10]: 599 ns
- contribution of τ1 (short-lived component) to the decay ([4]; Tris-HCl buffer, biexponential fit): less than 1%
- τ1 [4, 11]: 355 ns
- τ2 [4, 11]: 672 ns
- contribution of τ1 to the decay [4, 12]: 6.6%
- contribution of τ2 to the decay [4, 12]: 93.4%
- aggregate size (DLS, particle size distribution by intensity) [5]: around 100 nm
- uptake in ER+ cells compared to ER– cells (ICP-MS) [6]: slightly higher accumulation in ER– cells than in ER+ cells

SMILES: [Cl][Ru][Cl].c1ccc(-c2ccccn2)nc1.c1ccc(-c2ccccn2)nc1.c1ccc(-c2ccccn2)nc1 [[Ru(bpy)3]Cl2, reference compound]
- Φ (luminescence quantum yield) ([1]; MeCN (298 K)): 1.6%
- λabs [1, 9]: 453 nm
- λem [1, 9]: 630 nm
- IC50 (MDA-MB-453 (ER-) cells): > 100 µM
- Φ (luminescence quantum yield) [7]: 4.9^55%
- 1O2 quantum yield (ΦΔ) [8]: 0.41
- IC50 (MCF-7 (ER+) cells [3]): > 100 µM
- SI = selectivity index, [IC50(ER‑)]light/[IC50(ER+)]light (MCF-7 (ER+) cells [3]): NPD ^b
- τ1 ([4]; MeCN): 156 ns
- τ1 ([4]; MeOH): 205 ns
- τ1 [4, 10]: 329 ns
- τ1 [4, 11]: 357 ns
- aggregate size (DLS, particle size distribution by intensity) [5]: no visible aggregates were observed
